Experimental data taken from US9943522B2, “Use of cathepsin K inhibition for the treatment and/or prophylaxis of pulmonary hypertension and/or heart failure” (BAYER INTELLECTUAL PROPERTY GMBH, priority 2011, dated 2018).

What was measured:
[1] = tested on: hypoxia-induced pulmonary hypertension in the guinea pig; experiment: Hypoxia-induced pulmonary hypertension in the guinea pig: right ventricular hypertrophy (RV/LV+S); format: in vivo
Excerpt: Chronic hypoxia is a literature described and accepted animal model for pulmonary hypertension and is described for different species (Am J Physiol Lung Cell Mol Physiol 297: L1013-L1032, 2009; J Pharmacol Sci 107, 8-14 (2008); Pharmacology & Therapeutics 92 (2001) 1-20). Acute hypoxia increases pulmonary arterial pressure through pulmonary arterial constriction. Chronic hypoxia causes more severe pulmonary hypertension through vascular architectural changes and an increase of hematocrit (Hct) in the blood. […]
The CTSK inhibitor Odanacatib was tested in a guinea pig model for pulmonary hypertension as described in the examples section. […] The heart was dissected, and the ratio of the right ventricle to left ventricle plus septum weight (RV/LV+S) was calculated as an index of right ventricular hypertrophy. The right ventricle was snap-frozen on dry ice for RNA extraction and quantitative real-time polymerase chain reaction. […]
Male Dunkin Hartley guinea pigs weighing approximately 250 g were randomized to three different treatment groups (n=7-8 animals/group; control+placebo, hypoxia+placebo, hypoxia+Odanacatib). […] The heart was dissected, and the ratio of the right ventricle to left ventricle plus septum weight (RV/LV+S) was calculated as an index of right ventricular hypertrophy. […]

[2] = tested on: ANP; experiment: Relative expression of ANP in heart right ventricle, hypoxia-induced pulmonary hypertension model (TaqMan RT-PCR); format: in vivo, guinea pig; settings: hypoxia 28 days, Odanacatib infusion, compared to placebo group; FIG. 2
Experimental: (§1) To analyse the disease state of the animals and determine the efficacy of Odanacatib treatment, the expression of marker genes were performed. […] Due to the known correlation of increased ANP levels and disease stage in heart failure patients and animal models, the increased expression of […] seems to be correlated with pulmonary hypertension.
(§2) Guinea pig or dog tissues were pulverized by grinding with liquid nitrogen. Total RNA was extracted, DNase I digestion was performed to remove residual genomic DNA and the RNA were reverse transcribed using random hexomer primers. Quantitative TaqMan RT-PCR analysis was performed using the Applied Biosystems PRISM 7900 sequence detection system. […] Results were normalized to L32 (dog) or b-actin (guinea pig) controls, and relative expression was calculated according to the following formula: relative expression=2(20-(CT(probe)-CT(L32/b-actin))). […]
(§3) Male Dunkin Hartley guinea pigs weighing approximately 250 g were randomized to three different treatment groups (n=7-8 animals/group; control+placebo, hypoxia+placebo, hypoxia+Odanacatib). […] The heart was dissected, and the ratio of the right ventricle to left ventricle plus septum weight (RV/LV+S) was calculated as an index of right ventricular hypertrophy. The right ventricle was snap-frozen on dry ice for RNA extraction and quantitative real-time polymerase chain reaction. […]

[3] = tested on: LTBP2; experiment: Relative expression of LTBP2 in heart right ventricle, hypoxia-induced pulmonary hypertension model (TaqMan RT-PCR); format: in vivo, guinea pig; settings: hypoxia 28 days, Odanacatib infusion, compared to placebo group; FIG. 3
Experimental: as §1, §2
For relative quantitation of the mRNA distribution of LTBP2, total RNA from each sample was first reverse transcribed. […]
For relative quantitation of the distribution of LTBP2 mRNA the Applied Bioscience ABI 7900HT Sequence Detection system was used according to the manufacturer's specifications and protocols.
PCR reactions were set up to quantitate LTBP2 and the housekeeping gene b-actin. […]

[4] = tested on: CTSK; experiment: Relative expression of CTSK in heart right ventricle, hypoxia-induced pulmonary hypertension model (TaqMan RT-PCR); format: in vivo, guinea pig; settings: hypoxia 28 days, Odanacatib infusion, compared to placebo group; FIG. 4
Experimental: as §1, §2, §3

## CC(C)(F)C[C@H](N[C@@H](c1ccc(-c2ccc(S(C)(=O)=O)cc2)cc1)C(F)(F)F)C(=O)NC1(C#N)CC1 [Odanacatib]
[1]; Mean±SEM, normobaric hypoxia (10% O2) 28 days, continuous infusion by osmotic minipump day 0-28, hypoxic placebo 0.37±0.01, normoxic control 0.28±0.01
  ratio of the right ventricle to left ventricle plus septum weight (RV/LV+S): 0.30±0.01
[1]; hypoxia-induced pulmonary hypertension animals, compared to placebo treated animals
  right ventricle weight: reduction of right ventricle weight
[2]
  expression of ANP in heart (right ventricle) under hypoxia: markedly decreased expression
[3]
  expression of LTBP2 in heart (right ventricle) under hypoxia: markedly decreased expression
[4]
  expression of CTSK in heart (right ventricle) under hypoxia: markedly decreased expression
